The record followed here is patent US9399636B2, “Substituted dipyridylamines and uses thereof” (Genentech, Inc., priority 2012, dated 2016).

The target of the assay is T1, DLK (Homo sapiens, UniProt Q12852).
T1 construct: N-terminally GST-tagged DLK (catalytic domain amino acid 1-520) (Carna Bioscience); GST (N); purchased Carna Bioscience
T1 sequence (Q12852 1-520): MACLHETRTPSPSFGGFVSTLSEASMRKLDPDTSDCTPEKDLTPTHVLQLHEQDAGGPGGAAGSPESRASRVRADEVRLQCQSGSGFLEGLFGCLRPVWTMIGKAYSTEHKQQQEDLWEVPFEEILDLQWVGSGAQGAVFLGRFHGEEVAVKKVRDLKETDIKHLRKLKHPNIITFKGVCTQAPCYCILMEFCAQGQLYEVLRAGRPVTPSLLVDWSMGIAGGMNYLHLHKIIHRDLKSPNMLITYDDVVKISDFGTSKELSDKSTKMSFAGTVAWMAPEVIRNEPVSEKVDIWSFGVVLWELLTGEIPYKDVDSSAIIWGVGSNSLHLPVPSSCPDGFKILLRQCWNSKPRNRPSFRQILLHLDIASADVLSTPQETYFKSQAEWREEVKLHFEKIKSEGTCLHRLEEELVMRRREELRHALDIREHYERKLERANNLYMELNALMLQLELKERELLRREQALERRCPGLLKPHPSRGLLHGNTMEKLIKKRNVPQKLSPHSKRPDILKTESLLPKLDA
Description: DLK TR-FRET assay. It is filed as biochemical. The following applies: 5 nM GST-tagged DLK (catalytic domain amino acid 1-520), 40 nM HIS-tagged MKK4 K131M substrate, 30 μM ATP, 60 minutes. The method, boiled down: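 Phosphorylation of HIS-tagged MKK4 K131M (40 nM) by GST-DLK aa 1-520 (5 nM) at 30 μM ATP, pH 7.5, run 60 min at ambient temperature. Compound series started at 20 uM, diluted 1:3. Phospho-MKK4 detected by TR-FRET (Eu cryptate/D2 antibodies, 3 h, EDTA-containing buffer).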
In general terms: TR-FRET usually uses a lanthanide donor and a delayed reading to cut background.

Turning to `CC(=O)N1CCC(c2cc(Nc3cc(C)ccn3)nc(-c3cnn(C)c3)c2)CC1` [Example 134, 1-[2′-(1-Methyl-1H-pyrazol-4-yl)-6′-(4-methyl-pyridin-2-ylamino)-3,4,5,6-tetrahydro-2H-[4,4′]bipyridinyl-1-yl]-ethanone], affinity was put at a Ki of 30 nM. As for `Cc1ccnc(Nc2cc(C3CCN(C4COC4)CC3)cc(N3CCC[C@H]3C)n2)c1` [Example 135, (4-Methyl-pyridin-2-yl)-[6-((R)-2-methyl-pyrrolidin-1-yl)-1′-oxetan-3-yl-1′,2′,3′,4′,5′,6′-hexahydro-[4,4′]bipyridinyl-2-yl]-amine], the inhibitory constant (Ki) (usually a measure of affinity in units of concentration, obtained from inhibition or displacement) was found to be 21 nM. `Cc1ccnc(Nc2cc(C3CCN(S(C)(=O)=O)CC3)cc(N3CCC[C@H]3C)n2)c1` [Example 136, [1′-Methanesulfonyl-6-((R)-2-methyl-pyrrolidin-1-yl)-1′,2′,3′,4′,5′,6′-hexahydro-[4,4′]bipyridinyl-2-yl]-(4-methyl-pyridin-2-yl)-amine]: the Ki was determined as 25 nM.

As for `C[C@@H]1CCCN1c1cc(C2CCN(CCF)CC2)cc(Nc2cc(C(F)(F)F)ccn2)n1` [Example 137, [1′-(2-Fluoro-ethyl)-6-((R)-2-methyl-pyrrolidin-1-yl)-1′,2′,3′,4′,5′,6′-hexahydro-[4,4′]bipyridinyl-2-yl]-(4-trifluoromethyl-pyridin-2-yl)-amine], the affinity, expressed as Ki, was 0.17 nM. This Ki lies about 150-fold lower than the previous one.

For `CN1CCCC(c2cc(Nc3cc(C(F)(F)F)ccn3)nc(N3CCC(F)(F)C3)c2)C1` (centres unmarked) [Example 138, [6′-(3,3-Difluoro-pyrrolidin-1-yl)-1-methyl-1,2,3,4,5,6-hexahydro-[3,4′]bipyridinyl-2′-yl]-(4-trifluoromethyl-pyridin-2-yl)-amine], the Ki stood at 0.17 nM. This counts as sub-nanomolar. With `C[C@@H]1CCCN1c1cc(C2CCN(S(C)(=O)=O)CC2)cc(Nc2cc(C(F)(F)F)ccn2)n1` [Example 139, [1′-Methanesulfonyl-6-((R)-2-methyl-pyrrolidin-1-yl)-1′,2′,3′,4′,5′,6′-hexahydro-[4,4′]bipyridinyl-2-yl]-(4-trifluoromethyl-pyridin-2-yl)-amine] the figure was 6.6 nM.

As for `C[C@@H]1CCCN1c1cc(C2CCN(CCO)CC2)cc(Nc2cc(C(F)(F)F)ccn2)n1` [Example 140, 2-[6′-((R)-2-Methyl-pyrrolidin-1-yl)-2′-(4-trifluoromethyl-pyridin-2-ylamino)-3,4,5,6-tetrahydro-2H-[4,4′]bipyridinyl-1-yl]-ethanol], the affinity corresponds to a Ki of 0.17 nM. The same measure for `CC(=O)N1CCC(c2cc(Nc3cc(C(F)(F)F)ccn3)nc(N3CCC[C@H]3C)c2)CC1` [Example 141, 1-[2′-((R)-2-Methyl-pyrrolidin-1-yl)-6′-(4-trifluoromethyl-pyridin-2-ylamino)-3,4,5,6-tetrahydro-2H-[4,4′]bipyridinyl-1-yl]-ethanone]: 2 nM; for `CC(=O)N1CCC(c2cc(Nc3cc(C4CC4)ccn3)nc(N3CCC[C@H]3C)c2)CC1` [Example 142, 1-[6′-(4-Cyclopropyl-pyridin-2-ylamino)-2′-((R)-2-methyl-pyrrolidin-1-yl)-3,4,5,6-tetrahydro-2H-[4,4′]bipyridinyl-1-yl]-ethanone]: 22 nM; for `CC(=O)N1CCC(c2cc(Nc3cc(C(F)(F)F)ccn3)nc(N3CCC(F)(F)C3)c2)CC1` [Example 143, 1-[2′-(3,3-Difluoro-pyrrolidin-1-yl)-6′-(4-trifluoromethyl-pyridin-2-ylamino)-3,4,5,6-tetrahydro-2H-[4,4′]bipyridinyl-1-yl]-ethanone]: 1.2 nM.

`Cc1ccnc(Nc2cc(C3CCNCC3)cc(N(C)CCO)n2)c1` [Example 144, 2-{Methyl-[6-(4-methyl-pyridin-2-ylamino)-1′,2′,3′,4′,5′,6′-hexahydro-[4,4′]bipyridinyl-2-yl]-amino}-ethanol] came in with a Ki of 61 nM. This Ki lies about 51-fold higher than the previous one. In turn, `Cc1ccc(Nc2cc(C3CCN(C(=O)C4CCCCC4)CC3)ccn2)nc1` [Example 145, cyclohexyl(4-(2-((5-methylpyridin-2-yl)amino)pyridin-4-yl)piperidin-1-yl)methanone] had a Ki of 3600 nM. The same measure for `O=C([C@@H]1CCCCN1)N1CCC(c2ccnc(Nc3ccccn3)c2)CC1` [Example 146, (S)-piperidin-2-yl(4-(2-(pyridin-2-ylamino)pyridin-4-yl)piperidin-1-yl)methanone]: 2100 nM; for `Cc1ccnc(Nc2cc(C3CCN(C(=O)[C@@H]4CCCCN4)CC3)ccn2)c1` [Example 147, (S)-(4-(2-((4-methylpyridin-2-yl)amino)pyridin-4-yl)piperidin-1-yl)(piperidin-2-yl)methanone]: 1200 nM.
